The nature of series [1]: Stability test in buffer (pH 7.4). The series is classed as physicochemical. Particulars: phosphate buffer/acetonitrile 7:3, 100 mM potassium phosphate buffer (pH 7.4) and acetonitrile 7:3 (v/v), LC/MS; for remaining at 10 min: 10 minutes at 37°C, read-out: Buf. remaining rate (%/10min); for remaining at 1 h: 60 minutes at 37°C, read-out: Buf. remaining rate (%/60min). An outline of the steps:
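Parent compound measured by LC/MS after 0, 10 or 60 min at 37°C in a 7:3 (v/v) mix of 100 mM potassium phosphate buffer and acetonitrile, with the reaction stopped by acetonitrile plus formic acid (final 0.1%). Percentage remaining is expressed relative to the zero-time amount.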

A short description of series [2]: Metabolic stability test in plasma. Particulars: LC/MS; for remaining at 10 min: unchanged form after 10 minutes at 37°C in human plasma, read-out: Remaining rate in human plasma (%/10min); for remaining at 1 h: unchanged form after 60 minutes at 37°C in human plasma, read-out: Remaining rate in human plasma (%/60min). The format is in vitro ADME, human. An outline of the steps: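 Remaining rate (%) versus zero time was derived from LC/MS measurement of parent compound after centrifugation. Plasma from human, mouse and hamster received DMSO-dissolved compound and was held at 37°C for 0, 10 or 60 minutes before acetonitrile containing formic acid (final 0.1%) stopped the reaction.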

Series [3] is described as follows: Metabolic stability test in liver S9. The series is classed as in vitro ADME. Particulars: pH 7.4, human liver S9 2 mg protein/mL, LC/MS; for remaining at 10 min: unchanged form after 10 minutes at 37°C, read-out: Remaining rate in human liver S9 (%/10min); for remaining at 1 h: unchanged form after 60 minutes at 37°C, read-out: Remaining rate in human liver S9 (%/60min). An outline of the steps: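 Compound from DMSO solution was incubated at 37°C with human liver S9 (final 2 mg protein/mL) in 100 mM potassium phosphate pH 7.4 with an NADPH-regenerating system for 0, 10 and 60 minutes. Reactions were stopped with acetonitrile/0.1% formic acid. Unchanged compound was measured by LC/MS as remaining rate (%) relative to zero time.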

On to `CCOC(=O)c1cc(C)c(OC(=O)CCCc2ccc(NC(=O)c3ccc(C)nc3-c3ccc(C(F)(F)F)cc3)c(C(=O)N(C)C)c2)c(C(=O)OC)c1` [Compound 1-52, 4-[4-(3-dimethylcarbamoyl-4-{[6-methyl-2-(4-trifluoromethylphenyl)pyridine-3-carbonyl]amino}phenyl)butyryloxy]-5-methylisophthalic acid 1-ethyl ester 3-methyl ester], for which the remaining at 10 min was found to be 100% in series [1], 12% in series [2] and 13% in series [3]. The remaining at 1 h amounted to 101% in series [1], 0% in series [2] and 4% in series [3].

On to `Cc1cccc(COC(=O)c2ccc(OC(=O)CCCc3ccc(NC(=O)c4ccc(C)nc4-c4ccc(C(F)(F)F)cc4)c(C(=O)N(C)C)c3)cc2)n1` [Compound 1-100, 4-[4-(3-dimethylcarbamoyl-4-([6-methyl-2-(4-trifluoromethylphenyl)pyridine-3-carbonyl]amino}phenyl)butyryloxy]benzoic acid 6-methylpyridin-2-ylmethyl ester], for which the remaining at 10 min in series [1] came to 102%; in series [2], 12%; in series [3], 0%. Besides, the remaining at 1 h stood at 102% in series [1], 0% in series [2] and 0% in series [3].

For `COC(=O)c1ccc(OC(=O)C2CCN(c3ccc(NC(=O)c4ccccc4-c4ccc(C(F)(F)F)cc4)c(C(=O)N(C)C)c3)CC2)c(F)c1` [Compound 3-2, 1-{3-dimethylcarbamoyl-4-[(4'-trifluoromethylbiphenyl-2-carbonyl)amino]phenyl}piperidine-4-carboxylic acid 2-fluoro-4-methoxycarbonylphenyl ester], the remaining at 10 min was found to be 94% in series [1], 24% in series [2] and 2% in series [3]. Besides, the remaining at 1 h worked out at 97% in series [1], 0% in series [2] and 0% in series [3].

Turning to `COC(=O)c1ccc(OC(=O)CN(C)Cc2ccc(NC(=O)c3ccccc3-c3ccc(C(F)(F)F)cc3)c(C(=O)N(C)C)c2)cc1` [Compound 2-1, 4-[2-({3-dimethylcarbamoyl-4-[(4'-trifluoromethylbiphenyl-2-carbonyl)amino]benzyl}methylamino)acetoxy]benzoic acid methyl ester], the remaining at 10 min in series [1] worked out at 95%; in series [2] it was 47%; in series [3], 0%. Also, the remaining at 1 h was 95% in series [1], 0% in series [2] and 0% in series [3].

For `CCCC(=O)c1ccc(OC(=O)CCCc2ccc(NC(=O)c3ccccc3-c3ccc(C(F)(F)F)cc3)c(C(=O)N(C)C)c2)cc1` [Compound 1-93, 4-(3-dimethylcarbamoyl-4-{(4'-trifluoromethylbiphenyl-2-carbonyl)amino}phenyl)butyric acid 4-butyrylphenyl ester], the remaining at 10 min in series [1] was found to be 107%; in series [2] it was 52%; in series [3], 4%. Further, the remaining at 1 h is 109% in series [1], 0% in series [2] and 0% in series [3].

As for `CN(C)C(=O)c1cc(CCCC(=O)Oc2ccc(C(=O)OCc3ccc(Cl)cc3)cc2)ccc1NC(=O)c1ccccc1-c1ccc(C(F)(F)F)cc1` [Compound 1-79, 4-[4-(3-dimethylcarbamoyl-4-{(4'-trifluoromethylbiphenyl-2-carbonyl)amino}phenyl)butyryloxy]benzoic acid 4-chlorobenzyl ester], the remaining at 10 min in series [1] came to 96%; in series [2], 0%; in series [3], 20%. In addition, the remaining at 1 h turned out to be 95% in series [1], 0% in series [2] and 4% in series [3].

In the case of `COC(=O)c1ccc(OC(=O)CCCc2ccc(NC(=O)c3ccccc3-c3ccc(C(F)(F)F)cc3)c(C(=O)N(C)C)c2)c(C(C)C)c1` [Compound 1-68, 4-[4-(3-dimethylcarbamoyl-4-{(4'-trifluoromethylbiphenyl-2-carbonyl)amino}phenyl)butyryloxy]-3-isopropylbenzoic acid methyl ester], the values for the remaining at 10 min in series [1], in series [2] and in series [3] were 101%, 77% and 11%, respectively. Also, the remaining at 1 h in series [1] was determined as 103%; in series [2], 18%; in series [3] it was 3%.

Take `CN(C)C(=O)c1cc(CCCC(=O)Oc2ccc(C(=O)OCc3ccc(C(=O)OC(C)(C)C)cc3)cc2)ccc1NC(=O)c1ccccc1-c1ccc(C(F)(F)F)cc1` [Compound 1-103, 4-[4-(3-dimethylcarbamoyl-4-{(4'-trifluoromethylbiphenyl-2-carbonyl)amino}phenyl)butyryloxy]benzoic acid 4-(t-butoxycarbonyl)benzyl ester]: the remaining at 10 min is 105% in series [1], 99% in series [2] and 48% in series [3]. Moreover, the remaining at 1 h in series [1] was 111%; in series [2], 55%; in series [3], 12%.

Turning to `CCCOC(=O)c1cc(Cl)c(OC(=O)CCCc2ccc(NC(=O)c3ccc(C)nc3-c3ccc(C(F)(F)F)cc3)c(C(=O)N(C)C)c2)c(OC)c1` [Compound 1-75, 3-chloro-4-[4-(3-dimethylcarbamoyl-4-{[6-methyl-2-(4-trifluoromethylphenyl)pyridine-3-carbonyl]amino}phenyl)butyryloxy]-5-methoxybenzoic acid propyl ester], the values for the remaining at 10 min in series [1], in series [2] and in series [3] were 113%, 0% and 23%, respectively. The remaining at 1 h in series [1] came to 124%; in series [2], 0%; in series [3] it was 3%.

`CN(C)C(=O)c1cc(CCCC(=O)Oc2ccc(C(=O)O)cc2)ccc1NC(=O)c1ccccc1-c1ccc(C(F)(F)F)cc1` [Compound 1-25, 4-(4-{3-dimethylcarbamoyl-4-[(4'-trifluoromethylbiphenyl-2-carbonyl)amino]phenyl}butyryloxy) benzoic acid]: the remaining at 10 min came to 99% in series [1], 89% in series [2] and 4% in series [3]. Moreover, the remaining at 1 h in series [1] is 101%; in series [2] it was 59%; in series [3], 0%.

Turning to `COC(=O)c1ccc(OC(=O)CCCc2ccc(NC(=O)c3ccccc3-c3ccc(C(=O)OC)cc3)c(C(=O)N(C)C)c2)cc1` [Compound 4-3, 2'-{2-dimethylcarbamoyl-4-[3-(4-methoxycarbonylphenoxycarbonyl)propyl]phenylcarbamoyl}biphenyl-4-carboxylic acid methyl ester], the remaining at 10 min in series [1] was determined as 101%; in series [2], 0%; in series [3], 1%. Moreover, the remaining at 1 h in series [1] turned out to be 102%; in series [2] it was 0%; in series [3], 0%.

In the case of `CN(C)C(=O)c1cc(CCCC(=O)Oc2ccc(C(=O)OCc3ccsc3)cc2)ccc1NC(=O)c1ccccc1-c1ccc(C(F)(F)F)cc1` [Compound 1-99, 4-[4-(3-dimethylcarbamoyl-4-{(4'-trifluoromethylbiphenyl-2-carbonyl)amino}phenyl)butyryloxy]benzoic acid thiophen-3-ylmethyl ester], the remaining at 10 min in series [1] was 98%; in series [2] it was 5%; in series [3] it was 6%. The remaining at 1 h in series [1] was 99%; in series [2], 0%; in series [3], 0%.

As for `CN(C)C(=O)c1cc(CCCC(=O)Oc2ccc(-c3nnn(CC(=O)OCc4ccccc4)n3)cc2)ccc1NC(=O)c1ccccc1-c1ccc(C(F)(F)F)cc1` [Compound 1-104, 4-(3-dimethylcarbamoyl-4-{(4'-trifluoromethylbiphenyl-2-carbonyl)amino}phenyl)butyric acid 4-(2-benzyloxycarbonylmethyl-2H-tetrazol-5-yl)phenyl ester], the results for the remaining at 10 min in series [1], in series [2] and in series [3] were 101%, 78% and 14%, respectively. Further, the remaining at 1 h was 96% in series [1], 17% in series [2] and 5% in series [3].

For `CN(C)C(=O)c1cc(CCCC(=O)Oc2ccc(C(=O)OCc3cccnc3)cc2)ccc1NC(=O)c1ccccc1-c1ccc(C(F)(F)F)cc1` [Compound 1-83, 4-[4-(3-dimethylcarbamoyl-4-((4'-trifluoromethylbiphenyl-2-carbonyl)amino}phenyl)butyryloxy]benzoic acid pyridin-3-ylmethyl ester], the remaining at 10 min in series [1] came out at 99%; in series [2] it was 39%; in series [3], 0%. Also, the remaining at 1 h in series [1] worked out at 99%; in series [2], 0%; in series [3], 0%.
